According to patent US11807625B2, “Capsid inhibitors for the prevention of HIV” (Gilead Sciences, Inc., priority 2019, dated 2023):
Like-named read-outs stand apart in the source and are kept apart here.

Test: PK of compound of Formula (Ia) after single intramuscular dose of solution formulations in Wistar Han rats
Format: in vivo
Details: for Plasma concentration: 0 h; for Plasma concentration / concentration at 48 h / concentration at 1 h / concentration at 24 h / concentration at 72 h / concentration at 96 h / concentration at 168 h / concentration at 3 h / concentration at 8 h: IM 100 mg/kg; for concentration at 48 h / concentration at 1 h / concentration at 24 h / concentration at 72 h / concentration at 96 h / concentration at 168 h / AUC(0-t) / concentration at 3 h / concentration at 8 h: Wistar Han, rat, plasma, 100 mg/kg; for concentration at 48 h / concentration at 1 h / concentration at 24 h / concentration at 72 h / concentration at 96 h / concentration at 168 h / concentration at 3 h / concentration at 8 h: intramuscular; for AUC(0-t): im, single IM 100 mg/kg, male Wistar Han rats, mean ± SD
Method: Formulations containing the compound of Formula (Ia), or a pharmaceutically acceptable salt thereof, were prepared as solutions and optionally administered subcutaneously or intramuscularly to rats, rabbits, and/or dogs.
A solution of about 400 mg/ml of the compound of Formula (Ia) having 21.13 w/w % water, 45.25 w/w % PEG 300, and 33.61 w/w % of a sodium salt of a compound of Formula (Ia) was prepared. The solution was administered intramuscularly to Wistar Han rats at a dose of about 100 mg/kg and beagle dogs at a dose of about 30 mg/kg.
A solution of about 400 mg/ml of the compound of Formula (Ia) having 19.18 w/w % water, 41.09 w/w % PEG 300, 33.61 w/w % of a sodium salt of a compound of Formula (Ia), and 6.12 w/w % poloxamer 188 was prepared. The solution was administered intramuscularly to Wistar Han rats at a dose of about 100 mg/kg and beagle dogs at a dose of about 30 mg/kg.
(§1) A solution of about 500 mg/ml of the compound of Formula (Ia) having 16.93 w/w % water, 36.22 w/w % PEG 300, 41.85 w/w % of a sodium salt of a compound of Formula (Ia), and 5.00% ethanol was prepared. The solution was administered intramuscularly to Wistar Han rats at a dose of about 100 mg/kg and beagle dogs at a dose of about 30 mg/kg.
as §1, with “14.50” for “16.93”, “31.04” for “36.22”, “(Ia), 5.00% ethanol,” for “(Ia),”, “7.61 w/w % poloxamer 188” for “5.00% ethanol”

[1] = Solution H (~400 mg/mL), Wistar Han rats, mean, n = 4, read-out: Plasma concentration, Mean
[2] = Solution K (~500 mg/mL, ethanol), Wistar Han rats, individual animals #1-#4, read-out: Plasma concentration
[3] = Solution K (~500 mg/mL, ethanol), Wistar Han rats, mean, n = 4, read-out: Plasma concentration, Mean
[4] = male, individual rats, solution M, 500 mg/mL, read-out: Plasma concentration
[5] = male, mean, n = 4 rats, solution M, 500 mg/mL, read-out: Plasma concentration
[6] = male, Solution H (~400 mg/mL), Wistar Han rats, mean, n = 4, read-out: Plasma concentration, Mean
[7] = male, Solution J (~400 mg/mL, poloxamer 188), Wistar Han rats, individual animals #1-#4, read-out: Plasma concentration
[8] = male, Solution J (~400 mg/mL, poloxamer 188), Wistar Han rats, mean, n = 4, read-out: Plasma concentration, Mean
[9] = male, Solution K (~500 mg/mL, ethanol), Wistar Han rats, individual animals #1-#4, read-out: Plasma concentration
[10] = male, Solution K (~500 mg/mL, ethanol), Wistar Han rats, mean, n = 4, read-out: Plasma concentration, Mean

What does the source list for `CC(C)(C#Cc1ccc(-c2ccc(Cl)c3c(NS(C)(=O)=O)nn(CC(F)(F)F)c23)c([C@H](Cc2cc(F)cc(F)c2)NC(=O)Cn2nc(C(F)(F)F)c3c2C(F)(F)[C@@H]2C[C@H]32)n1)S(C)(=O)=O` [compound of Formula (Ia)]?
Plasma concentration (individual rats, solution M, 500 mg/mL): BLQ; Plasma concentration (Solution H (~400 mg/mL), Wistar Han rats, individual animals #1-#4): BLQ; Plasma concentration (Solution J (~400 mg/mL, poloxamer 188), Wistar Han rats, individual animals #1-#4): BLQ; Plasma concentration (Solution K (~500 mg/mL, ethanol), Wistar Han rats, individual animals #1-#4): BLQ; concentration at 48 h (Solution H (~400 mg/mL), Wistar Han rats, individual animals #1-#4, read-out: Plasma concentration): 354 nM; concentration at 1 h [1]: 150 nM; concentration at 24 h [1]: 439 nM; concentration at 48 h [1]: 471 nM; concentration at 72 h [1]: 397 nM; concentration at 96 h [1]: 477 nM; concentration at 168 h [1]: 588 nM; concentration at 72 h [2]: 516 nM; concentration at 96 h [2]: 537 nM; concentration at 168 h [2]: 640 nM; concentration at 1 h [3]: 146 nM; concentration at 72 h [3]: 433 nM; concentration at 96 h [3]: 401 nM; concentration at 168 h [3]: 507 nM; AUC(0-t) (male, Solution H (~400 mg/mL; Na salt, water, PEG 300), n = 4, read-out: AUC0-24h): 7.59 ± 2.93 µM·h; AUC(0-t) (male, Solution H (~400 mg/mL; Na salt, water, PEG 300), n = 4, read-out: AUC0-168h): 77.7 ± 26.1 µM·h; AUC(0-t) (male, Solution J (~400 mg/mL; Na salt, water, PEG 300, poloxamer 188), n = 4, read-out: AUC0-24h): 12.1 ± 1.9 µM·h; AUC(0-t) (male, Solution J (~400 mg/mL; Na salt, water, PEG 300, poloxamer 188), n = 4, read-out: AUC0-168h): 82.5 ± 8.7 µM·h; AUC(0-t) (male, Solution K (~500 mg/mL; Na salt, water, PEG 300, ethanol), n = 4, read-out: AUC0-24h): 6.13 ± 1.7 µM·h; AUC(0-t) (male, Solution K (~500 mg/mL; Na salt, water, PEG 300, ethanol), n = 4, read-out: AUC0-168h): 67.4 ± 15.7 µM·h; AUC(0-t) (male, Solution M (~500 mg/mL; Na salt, water, PEG 300, ethanol, poloxamer 188), n = 4, read-out: AUC0-24h): 13.4 ± 2.4 µM·h; AUC(0-t) (male, Solution M (~500 mg/mL; Na salt, water, PEG 300, ethanol, poloxamer 188), n = 4, read-out: AUC0-168h): 92.9 ± 9.6 µM·h; concentration at 1 h [4]: 177 nM; concentration at 1 h [5]: 184 nM; concentration at 3 h [4]: 304 nM; concentration at 3 h [5]: 405 nM; concentration at 8 h [4]: 443 nM; concentration at 8 h [5]: 544 nM; concentration at 24 h [4]: 737 nM; concentration at 24 h [5]: 750 nM; concentration at 48 h [4]: 623 nM; concentration at 48 h [5]: 622 nM; concentration at 72 h [5]: 426 nM; concentration at 96 h [4]: 593 nM; concentration at 96 h [5]: 526 nM; concentration at 168 h [4]: 504 nM; concentration at 168 h [5]: 560 nM; concentration at 3 h (male, Solution H (~400 mg/mL), Wistar Han rats, individual animals #1-#4, read-out: Plasma concentration): 179 nM; concentration at 3 h [6]: 245 nM; concentration at 8 h [6]: 285 nM; concentration at 3 h [7]: 463 nM; concentration at 8 h [7]: 510 nM; concentration at 24 h [7]: 761 nM; concentration at 48 h [7]: 716 nM; concentration at 72 h [7]: 526 nM; concentration at 96 h [7]: 506 nM; concentration at 168 h [7]: 481 nM; concentration at 1 h [8]: 249 nM; concentration at 3 h [8]: 445 nM; concentration at 8 h [8]: 507 nM; concentration at 24 h [8]: 605 nM; concentration at 48 h [8]: 558 nM; concentration at 72 h [8]: 452 nM; concentration at 96 h [8]: 461 nM; concentration at 168 h [8]: 467 nM; concentration at 24 h [9]: 438 nM; concentration at 48 h [9]: 439 nM; concentration at 3 h [10]: 209 nM; concentration at 8 h [10]: 218 nM; concentration at 24 h [10]: 361 nM; concentration at 48 h [10]: 376 nM
